Legend:
[1] = test system: Lactobacillus plantarum PN0512; assay: Growth of L. plantarum PN0512 in the presence of butanols at different temperatures; type: cell-based; set-up: key to Growth at 37° C. / Growth at 30° C. / Growth at 25° C.: +: growth observed as an increase in OD600.; −: no growth observed, i.e. no change in OD600
Procedure: Tolerance levels of bacterial strain Lactobacillus plantarum PN0512 (ATCC # PTA-7727) were determined at 25° C., 30° C. and 37° C. as follows. The strain was cultured in S30L medium (i.e., 10 mM ammonium sulfate, 5 mM potassium phosphate buffer, pH 7.0, 50 mM MOPS, pH 7.0, 2 mM MgCl2, 0.7 mM CaCl2, 50 μM MnCl2, 1 μM FeCl3, 1 μM ZnCl2, 1.72 μM CuCl2, 2.53 μM CoCl2, 2.42 μM Na2MoO4, 2 μM thiamine hydrochloride, 10 mM glucose, and 0.2% yeast extract). An overnight culture in the absence of any test compound was started in 15 mL of the S30L medium in a 150 mL flask, with incubation at 37° C. in a shaking water bath. The next morning, the overnight culture was diluted into three 500 mL flasks containing 150 mL of fresh medium to an initial OD600 of about 0.08. Each flask was incubated in a shaking water bath, one each at 25° C., 30° C. and 37° C. Each large culture was allowed to acclimate at the test temperature for at least 0.5 h. […] Growth was followed by measuring OD600 for six hours after addition of the compounds.

[2] = test system: Klebsiella pneumoniae glycerol dehydratase; assay: Glycerol dehydratase butanediol dehydratase activity, crude cell free extract; type: biochemical; details: 10 mM meso-2,3-butanediol, 12 μM coenzyme B12, pH 8.2, 37° C.
Text: Glycerol dehydratase (E.C. 4.2.1.30) and diol dehydratase (E.C. 4.2.1.28), while structurally related, are often distinguished in the art based on various differences that include substrate specificity. […] The recombinant E. coli strain KLP23/pSYCO12, comprising Klebsiella pneumoniae genes encoding the multiple subunits of glycerol dehydratase (alpha: SEQ ID NO:145 (coding region) and 146 (protein); beta: SEQ ID NO: 147 (coding region) and 148 (protein); and gamma: SEQ ID NO: 149 (coding region) and 150 (protein)) and Klebsiella pneumoniae genes encoding the multiple subunits of glycerol dehydratase reactivase (large subunit, SEQ ID NO: 151 (coding region) and 152 (protein); and small subunit, SEQ ID NO: 153 (coding region) and 154 (protein)), is described in Emptage et al. U.S. Pat. No. 6,514,733 and in WO 2003089621, which are herein incorporated by reference. A crude, cell free extract of KLP23/pSYCO12 was prepared by methods known to one skilled in the art. […] The formation of 2-butanone was monitored by HPLC (Shodex SH-1011 column and SH-G guard column with refractive index detection; 0.01 M H2SO4 as the mobile phase at a flow rate of 0.5 mL/min and a column temperature of 50° C.; 2-butanone retention time=40.2 min). The rate of 2-butanone formation by the glycerol dehydratase preparation was determined to be 0.4 nmol/min/mg of crude protein.

CCC(C)O (stereo not drawn) [2-butanol]
Growth at 37° C. ([1]; 1.8 % w/v 2-butanol): +
Growth at 37° C. ([1]; 2.1 % w/v 2-butanol): +
Growth at 25° C. ([1]; 2.9 % w/v 2-butanol): +
Growth at 30° C. ([1]; 2.9 % w/v 2-butanol): +
Growth at 37° C. ([1]; 2.9 % w/v 2-butanol): +
Growth at 37° C. ([1]; 3.1 % w/v 2-butanol): +
Growth at 37° C. ([1]; 3.6 % w/v 2-butanol): +
Growth at 25° C. ([1]; 3.8 % w/v 2-butanol): +
Growth at 30° C. ([1]; 3.8 % w/v 2-butanol): +
Growth at 37° C. ([1]; 3.8 % w/v 2-butanol): +
Growth at 30° C. ([1]; 4.0 % w/v 2-butanol): +
Growth at 25° C. ([1]; 4.3 % w/v 2-butanol): +
Growth at 30° C. ([1]; 4.3 % w/v 2-butanol): +
Growth at 37° C. ([1]; 4.3 % w/v 2-butanol): +
Growth at 25° C. ([1]; 4.7 % w/v 2-butanol): +
Growth at 30° C. ([1]; 4.7 % w/v 2-butanol): +
Growth at 37° C. ([1]; 4.7 % w/v 2-butanol): −
Growth at 25° C. ([1]; 4.9 % w/v 2-butanol): +
Growth at 30° C. ([1]; 4.9 % w/v 2-butanol): −
Growth at 25° C. ([1]; 5.2 % w/v 2-butanol): +
Growth at 37° C. ([1]; 5.2 % w/v 2-butanol): −
Growth at 25° C. ([1]; 5.6 % w/v 2-butanol): −
Growth at 37° C. ([1]; 5.6 % w/v 2-butanol): −
Growth at 37° C. ([1]; 6.0 % w/v 2-butanol): −
Growth at 37° C. ([1]; 6.4 % w/v 2-butanol): −
Growth at 37° C. ([1]; 7.3 % w/v 2-butanol): −
concentration in which growth was observed ([1]; 25° C.): 5.2%
concentration in which growth was not observed ([1]; 30° C.): 4.9%
concentration in which growth was observed ([1]; 30° C.): 4.7%
concentration in which growth was not observed ([1]; 37° C.): 4.5%
concentration in which growth was observed ([1]; 37° C.): 4.3%
Growth at 30° C. ([1]; […] w/v 2-butanol): +

CC(O)C(C)O (stereo not drawn) [meso-2,3-butanediol]
rate of 2-butanone formation [2]: 0.4 nmol/min/mg of crude protein

From patent publication US8426174B2, “Method for the production of 2-butanol” (Butamax(TM) Advanced Biofuels LLC, priority 2007, dated 2013)
